Experimental data from ChEMBL document CHEMBL1255351, “Biochemical characterization of metallo-beta-lactamase VIM-11 from a Pseudomonas aeruginosa clinical strain” (2008).
Converted amounts (≈) assume the structure as drawn.

How the values were obtained:
Escherichia coli [1] = test: Antimicrobial activity Escherichia coli DH5alpha expressing beta lactamase VIM-2 by agar macrodilution method; type: functional
Escherichia coli [2] = test: Antimicrobial activity Escherichia coli DH5alpha expressing metallo-beta-lactamase VIM-11 by agar macrodilution method; type: functional
Pseudomonas aeruginosa = test: Ratio of Kcat to Km for Pseudomonas aeruginosa COL-1 metallo-beta lactamase VIM-2 over Kcat to Km for Pseudomonas aeruginosa M5109 metallo-beta-lactamase VIM-11
Escherichia coli [3] = test: Antimicrobial activity Escherichia coli DH5alpha harboring bacteriophage T4 plasmid alpha omega by agar macrodilution method; type: functional
Escherichia coli [4] = test: Activity at Escherichia coli DH5alpha metallo-beta-lactamase VIM-11 assessed as compound hydrolysis per mg of total periplasmic protein by spectrometry
[5] = biological target: Metallo-beta-lactamase (Escherichia coli) (UniProt Q5U7L7); test: Activity at Escherichia coli DH5alpha metallo-beta-lactamase VIM-2 assessed as compound hydrolysis per mg of total periplasmic protein by spectrometry
[6] = test system: CC1(C)S[C@@H]2[C@H](NC(=O)[C@H](N)c3ccccc3)C(=O)N2[C@H]1C(=O)O; test: (§1) Ratio of Kcat to Km for Pseudomonas aeruginosa COL-1 metallo-beta lactamase VIM-2
[7] = test system: O=C(Cc1cccs1)N[C@@H]1C(=O)N2C(C(=O)O)=C(/C=C/c3ccc([N+](=O)[O-])cc3[N+](=O)[O-])CS[C@H]12; test: as §1
[8] = test system: CC(=O)OCC1=C(C(=O)O)N2C(=O)[C@@H](NC(=O)Cc3cccs3)[C@H]2SC1; test: as §1
[9] = test system: CO[C@@]1(NC(=O)Cc2cccs2)C(=O)N2C(C(=O)O)=C(COC(N)=O)CS[C@@H]21; test: as §1
[10] = test system: CC(C)(O/N=C(\C(=O)N[C@@H]1C(=O)N2C(C(=O)[O-])=C(C[n+]3ccccc3)CS[C@H]12)c1csc(N)n1)C(=O)O; test: as §1
[11] = test system: CO/N=C(\C(=O)N[C@@H]1C(=O)N2C(C(=O)O)=C(COC(C)=O)CS[C@H]12)c1csc(N)n1; test: as §1
[12] = test system: CO/N=C(\C(=O)N[C@@H]1C(=O)N2C(C(=O)O)=C(COC(N)=O)CS[C@H]12)c1ccco1; test: as §1
[13] = test system: C[C@@H](O)[C@H]1C(=O)N2C(C(=O)O)=C(S[C@@H]3CN[C@H](C(=O)N(C)C)C3)[C@H](C)[C@H]12; test: as §1
[14] = test system: CC1(C)S[C@@H]2[C@H](NC(=O)[C@H](N)c3ccccc3)C(=O)N2[C@H]1C(=O)O; test: (§2) Activity at Pseudomonas aeruginosa COL-1 metallo-beta lactamase VIM-2 by spectrometry
[15] = test system: O=C(Cc1cccs1)N[C@@H]1C(=O)N2C(C(=O)O)=C(/C=C/c3ccc([N+](=O)[O-])cc3[N+](=O)[O-])CS[C@H]12; test: as §2
[16] = test system: CC(=O)OCC1=C(C(=O)O)N2C(=O)[C@@H](NC(=O)Cc3cccs3)[C@H]2SC1; test: as §2
[17] = test system: CO[C@@]1(NC(=O)Cc2cccs2)C(=O)N2C(C(=O)O)=C(COC(N)=O)CS[C@@H]21; test: as §2
[18] = test system: CC(C)(O/N=C(\C(=O)N[C@@H]1C(=O)N2C(C(=O)[O-])=C(C[n+]3ccccc3)CS[C@H]12)c1csc(N)n1)C(=O)O; test: as §2
[19] = test system: CO/N=C(\C(=O)N[C@@H]1C(=O)N2C(C(=O)O)=C(COC(C)=O)CS[C@H]12)c1csc(N)n1; test: as §2
[20] = test system: CO/N=C(\C(=O)N[C@@H]1C(=O)N2C(C(=O)[O-])=C(C[n+]3cccc4c3CCC4)CS[C@H]12)c1csc(N)n1; test: as §2
[21] = test system: CO/N=C(\C(=O)N[C@@H]1C(=O)N2C(C(=O)O)=C(COC(N)=O)CS[C@H]12)c1ccco1; test: as §2
[22] = test system: C[C@@H](O)[C@H]1C(=O)N2C(C(=O)O)=C(S[C@@H]3CN[C@H](C(=O)N(C)C)C3)[C@H](C)[C@H]12; test: as §2

C[C@H]1[C@H](NC(=O)/C(=N\OC(C)(C)C(=O)O)c2csc(N)n2)C(=O)N1S(=O)(=O)O [AZTREONAM]
MIC (Escherichia coli [1]): 0.5 µg/mL (≈ 1.15 µM) | MIC (Escherichia coli [2]): 0.5 µg/mL (≈ 1.15 µM)

CO/N=C(\C(=O)N[C@@H]1C(=O)N2C(C(=O)O)=C(COC(N)=O)CS[C@H]12)c1ccco1 [CEFUROXIME]
MIC (Escherichia coli [1]): 128 µg/mL (≈ 302 µM) | MIC (Escherichia coli [2]): 64 µg/mL (≈ 151 µM) | kcat/Km ratio (Pseudomonas aeruginosa): 0.89 | MIC (Escherichia coli [3]): 4 µg/mL (≈ 9.43 µM)

CO[C@@]1(NC(=O)Cc2cccs2)C(=O)N2C(C(=O)O)=C(COC(N)=O)CS[C@@H]21 [CEFOXITIN]
MIC (Escherichia coli [1]): 64 µg/mL (≈ 150 µM) | MIC (Escherichia coli [2]): 32 µg/mL (≈ 74.9 µM) | kcat/Km ratio (Pseudomonas aeruginosa): 0.86 | MIC (Escherichia coli [3]): 4 µg/mL (≈ 9.36 µM)

C[C@@H](O)[C@H]1C(=O)N2C(C(=O)O)=C(SCCNC=N)C[C@H]12 [IMIPENEM ANHYDROUS]
MIC (Escherichia coli [1]): 1 µg/mL (≈ 3.34 µM) | MIC (Escherichia coli [2]): 0.5 µg/mL (≈ 1.67 µM) | kcat/Km ratio (Pseudomonas aeruginosa): 0.67 | Activity (Escherichia coli [4]): 1.3 µmol | Activity [5]: 27 µmol

C[C@@H](O)[C@H]1C(=O)N2C(C(=O)O)=C(S[C@@H]3CN[C@H](C(=O)N(C)C)C3)[C@H](C)[C@H]12 [MEROPENEM]
MIC (Escherichia coli [1]): 0.125 µg/mL (≈ 0.326 µM) | MIC (Escherichia coli [2]): 0.06 µg/mL (≈ 0.156 µM) | kcat/Km ratio (Pseudomonas aeruginosa): 1 | MIC (Escherichia coli [3]): 0.03 µg/mL (≈ 0.0782 µM)

Metallo-beta-lactamase VIM-2 (Pseudomonas aeruginosa) (from UniProt D1MEN9)
kcat/Km [6]: 2.2 ×10⁶ /M/s | kcat/Km [7]: 1.5 ×10⁶ /M/s | kcat/Km [8]: 1.6 ×10⁶ /M/s | kcat/Km [9]: 1 ×10⁶ /M/s | kcat/Km [10]: 3.2 ×10⁶ /M/s | kcat/Km [11]: 4.6 ×10⁶ /M/s | kcat/Km [12]: 5.5 ×10⁶ /M/s | kcat/Km [13]: 1.4 ×10⁶ /M/s | Km [14]: 136 µM | Km [15]: 13.8 µM | kcat [15]: 206 s⁻¹ | Km [16]: 6.2 µM | kcat [16]: 96.4 s⁻¹ | kcat [17]: 10 s⁻¹ | Km [18]: 88.2 µM | Km [19]: 13.4 µM | kcat [19]: 61 s⁻¹ | Km [20]: 171 µM | kcat [20]: 48.1 s⁻¹ | Km [21]: 5.5 µM | kcat [21]: 30.5 s⁻¹ | Km [22]: 24.5 µM | kcat [22]: 3.5 s⁻¹

CO/N=C(\C(=O)N[C@@H]1C(=O)N2C(C(=O)[O-])=C(C[N+]3(C)CCCC3)CS[C@H]12)c1csc(N)n1
MIC (Escherichia coli [1]): 0.5 µg/mL (≈ 1.04 µM) | MIC (Escherichia coli [2]): 0.5 µg/mL (≈ 1.04 µM) | kcat/Km ratio (Pseudomonas aeruginosa): 2.9

O=C(Cc1cccs1)N[C@@H]1C(=O)N2C(C(=O)O)=C(/C=C/c3ccc([N+](=O)[O-])cc3[N+](=O)[O-])CS[C@H]12
kcat/Km ratio (Pseudomonas aeruginosa): 1.06
